Measurements published in PubChem BioAssay AID248 (DTP/NCI, 2004).
Several values for one entry are separate records, joined by “and”; a condition that tells them apart may be missing. Equal entries are not always repeated. Inconclusive results and toxic doses are left out. Cut-off read from the data, not from the text of the source: active = T/C of 150% or more; inactive = T/C below 125%.

Test system: L1210 leukemia ip in BDF1 mice, survival T/C
Assay: NCI In Vivo Anticancer Drug Screen. Data for tumor model L1210 Leukemia (intraperitoneal) in B6D2F1 (BDF1) mice
Settings: endpoint: mean survival time, higher = longer survival
Outline: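 Survival endpoint. Drug-treated group vs vehicle group, expressed as T divided by C. Tumor passaged by transplantation.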

[1] = dose: 100.0 mg/kg/injection, schedule: Q01DX001 (ip), vehicle: saline
[2] = dose: 200.0 mg/kg/injection, schedule: Q01DX001 (ip), vehicle: saline
[3] = dose: 400.0 mg/kg/injection, schedule: Q01DX001 (ip), vehicle: saline
[4] = dose: 100.0 mg/kg/injection, schedule: Q04DX002 (ip), vehicle: saline with Tween-80
[5] = dose: 200.0 mg/kg/injection, schedule: Q04DX002 (ip), vehicle: saline with Tween-80
[6] = dose: 400.0 mg/kg/injection, schedule: Q04DX002 (ip), vehicle: saline with Tween-80
[7] = dose: 100.0 mg/kg/injection, schedule: Q01DX009 (ip), vehicle: Klucel (hydroxypropylcellulose) (HPC)
[8] = dose: 200.0 mg/kg/injection, schedule: Q01DX009 (ip), vehicle: Klucel (hydroxypropylcellulose) (HPC)
[9] = dose: 100.0 mg/kg/injection, schedule: Q01DX001 (ip), vehicle: carboxymethylcellulose (CMC)
[10] = dose: 400.0 mg/kg/injection, schedule: Q01DX001 (ip), vehicle: carboxymethylcellulose (CMC)
[11] = dose: 100.0 mg/kg/injection, schedule: Q04DX003 (ip), vehicle: saline with Tween-80
[12] = dose: 200.0 mg/kg/injection, schedule: Q04DX003 (ip), vehicle: saline with Tween-80
[13] = dose: 400.0 mg/kg/injection, schedule: Q04DX003 (ip), vehicle: saline with Tween-80
[14] = dose: 50.0 mg/kg/injection, schedule: Q01DX009 (ip), vehicle: saline with Tween-80
[15] = dose: 100.0 mg/kg/injection, schedule: Q01DX009 (ip), vehicle: saline with Tween-80

Measured: T/C

O=C(O)C(CCc1ccccc1)(CCc1ccccc1)C(=O)O
inactive: dose: 100.0 mg/kg/injection, schedule: Q01DX009 (ip), vehicle: saline 95 % of control | dose: 200.0 mg/kg/injection, schedule: Q01DX009 (ip), vehicle: saline 94 % of control | dose: 400.0 mg/kg/injection, schedule: Q01DX009 (ip), vehicle: saline 111 % of control

O=S1(=O)CCc2ccccc21
inactive: [1] 97 % of control | [2] 111 % of control | [3] 104 % of control

CCCCCS(=O)(=O)N(CC)CC
inactive: [4] 96 % of control | [5] 96 % of control | [6] 89 % of control

CCCc1nc2ccccc2c(=O)n1/N=C/c1ccccc1O
inactive: [7] 97 % of control | [8] 102 % of control | dose: 400.0 mg/kg/injection, schedule: Q01DX009 (ip), vehicle: Klucel (hydroxypropylcellulose) (HPC) 103 % of control

CCN(CC)C(=O)C1CN2CCc3cc(OC)c(OC)cc3C2CC1OC(C)=O (centres undefined)
inactive: dose: 6.25 mg/kg/injection, schedule: Q01DX009 (ip), vehicle: Klucel (hydroxypropylcellulose) (HPC) 94 % of control | dose: 12.5 mg/kg/injection, schedule: Q01DX009 (ip), vehicle: Klucel (hydroxypropylcellulose) (HPC) 97 % of control | dose: 25.0 mg/kg/injection, schedule: Q01DX001 (ip), vehicle: water 92 % of control | dose: 25.0 mg/kg/injection, schedule: Q01DX009 (ip), vehicle: Klucel (hydroxypropylcellulose) (HPC) 94 % of control | dose: 25.0 mg/kg/injection, schedule: Q04DX003 (ip), vehicle: Klucel (hydroxypropylcellulose) (HPC) 103 % of control | dose: 50.0 mg/kg/injection, schedule: Q01DX001 (ip), vehicle: water 111 % of control | dose: 50.0 mg/kg/injection, schedule: Q01DX009 (ip), vehicle: Klucel (hydroxypropylcellulose) (HPC) 103 % of control | dose: 50.0 mg/kg/injection, schedule: Q04DX003 (ip), vehicle: Klucel (hydroxypropylcellulose) (HPC) 100 % of control | dose: 100.0 mg/kg/injection, schedule: Q01DX001 (ip), vehicle: water 97 % of control | [7] 103 % of control | dose: 100.0 mg/kg/injection, schedule: Q04DX003 (ip), vehicle: Klucel (hydroxypropylcellulose) (HPC) 97 % of control | [8] 115 % of control

O=S(=O)(ON=C(c1ccc(Cl)cc1)c1ccc(Cl)cc1)c1ccccc1
inactive: dose: 100.0 mg/kg/injection, schedule: Q01DX009 (ip), vehicle: carboxymethylcellulose (CMC) 98 % of control | dose: 100.0 mg/kg/injection, schedule: Q04DX002 (ip), vehicle: carboxymethylcellulose (CMC) 101 % of control and 92 % of control | dose: 100.0 mg/kg/injection, schedule: Q04DX003 (ip), vehicle: carboxymethylcellulose (CMC) 106 % of control | dose: 200.0 mg/kg/injection, schedule: Q01DX009 (ip), vehicle: carboxymethylcellulose (CMC) 95 % of control and 92 % of control | dose: 200.0 mg/kg/injection, schedule: Q04DX002 (ip), vehicle: carboxymethylcellulose (CMC) 102 % of control and 111 % of control | dose: 200.0 mg/kg/injection, schedule: Q04DX003 (ip), vehicle: carboxymethylcellulose (CMC) 93 % of control | dose: 400.0 mg/kg/injection, schedule: Q01DX009 (ip), vehicle: carboxymethylcellulose (CMC) 95 % of control and 101 % of control | dose: 400.0 mg/kg/injection, schedule: Q04DX002 (ip), vehicle: carboxymethylcellulose (CMC) 95 % of control and 101 % of control | dose: 400.0 mg/kg/injection, schedule: Q04DX003 (ip), vehicle: carboxymethylcellulose (CMC) 93 % of control

Cc1cc(Cc2ccccc2)n[nH]1
inactive: dose: 100.0 mg/kg/injection, schedule: Q01DX001 (ip), vehicle: Klucel (hydroxypropylcellulose) (HPC) 107 % of control | dose: 200.0 mg/kg/injection, schedule: Q01DX001 (ip), vehicle: Klucel (hydroxypropylcellulose) (HPC) 102 % of control | dose: 400.0 mg/kg/injection, schedule: Q01DX001 (ip), vehicle: Klucel (hydroxypropylcellulose) (HPC) 108 % of control

O=S(=O)(ON=C1C=CC(=NOS(=O)(=O)c2ccccc2)C=C1)c1ccccc1
inactive: dose: 50.0 mg/kg/injection, schedule: Q01DX001 (ip), vehicle: saline 96 % of control | [1] 93 % of control | [2] 93 % of control | [3] 93 % of control

CN1C(=O)CC(/C=C\[N+](=O)[O-])c2ccccc21 (centres undefined)
inactive: [9] 94 % of control | [10] 104 % of control

CC(O)(C(=O)O)C(O)C(O)CO (centres undefined)
inactive: [4] 100 % of control | [5] 88 % of control | [6] 100 % of control

CC(C)CC(NC(=O)C(F)(F)F)C(=O)O (centres undefined)
inactive: [11] 97 % of control | [12] 90 % of control

O=C1c2ccccc2C(=O)c2[nH]ncc21
inactive: [4] 102 % of control | [5] 95 % of control | [6] 91 % of control

Clc1ccc(CC[PH+]2CC=CC2)cc1.Clc1ccc(CC[PH+]2CC=CC2)cc1.[Cl][Ni][Cl]
inactive: [4] 107 % of control

CC(=O)/C(=C/c1ccccc1)N=P(c1ccccc1)(c1ccccc1)c1ccccc1
inactive: dose: 50.0 mg/kg/injection, schedule: Q04DX003 (ip), vehicle: saline 90 % of control | [1] 87 % of control | dose: 100.0 mg/kg/injection, schedule: Q04DX003 (ip), vehicle: saline 92 % of control | [2] 89 % of control | dose: 200.0 mg/kg/injection, schedule: Q04DX003 (ip), vehicle: saline 90 % of control

C=C(Cl)COCC1CO1 (centres undefined)
inactive: dose: 44.0 mg/kg/injection, schedule: Q01DX Z (ip), vehicle: saline 92 % of control | dose: 66.0 mg/kg/injection, schedule: Q01DX Z (ip), vehicle: saline 110 % of control | dose: 100.0 mg/kg/injection, schedule: Q01DX Z (ip), vehicle: saline 94 % of control

Cn1cnc(/C(N)=N\O)c1N
inactive: dose: 25.0 mg/kg/injection, schedule: Q01DX005 (ip), vehicle: saline 102 % of control | dose: 50.0 mg/kg/injection, schedule: Q01DX005 (ip), vehicle: saline 113 % of control | dose: 100.0 mg/kg/injection, schedule: Q01DX005 (ip), vehicle: saline 107 % of control

CC1(C)CC(N=Cc2ccccc2O)CC(C)(C)N1O.CC1(C)CC(N=Cc2ccccc2O)CC(C)(C)N1O.[Pd]
inactive: [11] 88 % of control | [12] 90 % of control | [13] 88 % of control

CN(C)CCCN=Cc1ccc(O)cc1O.CN(C)CCCN=Cc1ccc(O)cc1O.[Ni+2]
inactive: dose: 25.0 mg/kg/injection, schedule: Q04DX003 (ip), vehicle: saline with Tween-80 91 % of control | dose: 50.0 mg/kg/injection, schedule: Q04DX003 (ip), vehicle: saline with Tween-80 91 % of control | [11] 89 % of control

O=c1oc2c(CN3CCOCC3)c(O)ccc2c2c1CCCC2
inactive: [9] 86 % of control | dose: 200.0 mg/kg/injection, schedule: Q01DX001 (ip), vehicle: carboxymethylcellulose (CMC) 96 % of control | [10] 91 % of control

COc1c(N)c(C)nc(Cl)c1C#N
inactive: [1] 97 % of control | [2] 103 % of control | [3] 109 % of control

NC(=O)C1C2C=CC(CC2)C1C(N)=O (centres undefined)
inactive: [11] 91 % of control | [12] 96 % of control | [13] 91 % of control

Clc1ccc(C#CP(C#Cc2ccc(Cl)cc2)C#Cc2ccc(Cl)cc2)cc1
inactive: [14] 88 % of control | [15] 103 % of control

CN(C)N=Nc1ccc(C(=O)N/N=C/c2ccc([N+](=O)[O-])cc2)cc1
inactive: [4] 100 % of control | [5] 94 % of control | [6] 99 % of control

CCOC(=O)CCSC
inactive: [14] 100 % of control | [15] 97 % of control | [11] 93 % of control | dose: 200.0 mg/kg/injection, schedule: Q01DX009 (ip), vehicle: saline with Tween-80 92 % of control | [12] 96 % of control

C=CCOC(=O)CCCCC(=O)OCC=C
inactive: [15] 94 % of control

O=C(CCl)c1ccc[nH]1
inactive: dose: 50.0 mg/kg/injection, schedule: Q01DX015 (ip), vehicle: carboxymethylcellulose (CMC) 93 % of control | dose: 75.0 mg/kg/injection, schedule: Q01DX001 (ip), vehicle: carboxymethylcellulose (CMC) 93 % of control | dose: 100.0 mg/kg/injection, schedule: Q01DX015 (ip), vehicle: carboxymethylcellulose (CMC) 93 % of control

c1ccc2c(c1)oc1cc3ccncc3cc12
inactive: [1] 96 % of control | [2] 94 % of control | [3] 102 % of control
